Assay results from US20100172875A1, “OIL-IN-WATER EMULSION AND ITS USE FOR THE DELAYED RELEASE OF ACTIVE ELEMENTS” (NESTEC S.A., priority 2007, published 2010).
Read-outs that look alike come from different tables or passages of the source.

Legend:
[1] = active element release into the headspace of emulsions under in vitro dynamic conditions, monitored by PTR-MS; assay type: physicochemical; conditions: for significance of Tmax difference: emulsion of this invention 5 wt % (MG:MCT 1:20) vs simple reference emulsion 5 wt % MCT, Fisher LSD, α<0.05
From the text: The Tmax of a given active element released from a given emulsion is a parameter determined from the curve representing the variation over time of the given active element concentration in the water phase or in the headspace of the emulsion or of product containing the emulsion under dynamic condition (denoted as release curve) as time at which the measured concentration of the given active element reaches its maximum (FIG. 1). The analytical methods that can be applied for measurement of release curve and corresponding Tmax in dynamic condition include, but are not restricted to, measuring in headspace under a continuous purging flow of nitrogen and analyzing the active element in the purged headspace gas through its specific mass-to-charge using Proton Transfer Reaction-Mass Spectrometry (PTR-MS) (Pollien, P., Lindinger, C., Yeretzian, C., and Blank, I., “Proton Transfer Reaction Mass Spectrometry, a Tool for On-Line Monitoring of Acrylamide Formation in the Headspace of Maillard Reaction Systems and Processed Food,” Analytical Chemistry, Vol. 75, No. 20, 2003, pp. 5488-5494).
A double-jacketted glass cell was held at 36° C. with a circulating water bath. This cell was put in the oven which was held at 60° C. in order to avoid cold points and water condensation. The headspace cell was continuously purged at 200 sccm (standard cubic centimeters per minute) with pure nitrogen. Prior to introduction into the PTR-MS, the headspace was diluted with 1960 sccm of nitrogen to avoid water saturation of the instrument.
When all the set-up had been thermo-stabilized, 100 ml of sample, after being stabilized at 36° C. in a water bath, was poured inside the cell, which was quickly reconnected and put under agitation at 135 rpm. The release of active elements was monitored on-line during 10 minutes for each sample.
Nine specific masses were selected based on the scan data, i.e., m/z 45 for acetaldehyde, m/z 83 for cis-3-Hexen-1-ol, m/z 87 for diacetyl, m/z 99 for 2E-hexenal, m/z 107 for benzaldehyde, m/z 111 for octanal, m/z 131 for ethyl isovalerate, m/z 137 linalool, m/z 167 for 3-methoxy-2-isobutylpyrazine.
The PTR-MS signals (ion count) enabled us to calculate the active element concentration in the headspace of the emulsion so that to build the release curve for the active element. Cmax of a given active element released from a given emulsion was determined from the release curve as the maximum concentration of the active element released in the headspace of the emulsion, expressed in ppmV (parts per million in volume).
Tmax of a given active element released from a given emulsion was determined from the release curve as the time to reach maximum concentration of the active element released in the headspace of the emulsion, expressed in seconds. The nine active elements are listed in X axis and sorted along their logP, from the lowest logP value (hydrophilic compounds) to the highest logP (lipophilic compounds). Black, grey and hatched bars represent respectively Tmax the active elements released in the headspace of an oil-in-water emulsion containing with 10 wt % Medium Chain Triglycerides (MCT) (herein labelled as simple emulsion with 10 wt % MCT), of an oil-in-water emulsion containing 5 wt % MCT (herein labelled as simple reference emulsion with 5 wt % MCT), and an oil-in-water emulsion containing 5 wt % of an 1:20 mixture of a unsaturated monoglyceride (DIMODAN MO90, Danisco, Denmark) and MCT (herein Emulsion of the present invention with 5 wt % (MG:MCT 1:20)). All Tmax values were obtained on 6 replicated measurements. Tmax of 2E-Hexenal for the simple emulsion with 10 wt % MCT is not determined because its concentration in the headspace was continuously and gradually increasing over the 10 minutes of measurement. […]

[2] = octanol/water partition coefficient (logP) of the active elements; assay type: physicochemical
From the text: The logarithm of the octanol/water partition coefficient (logP) is used extensively to describe the lipophilic or hydrophobic properties of an active element. The logP property value is taken from the ratio of the respective concentrations of the active element in the n-octanol and water partitions of a two-phase system at equilibrium. Among other methods, the classical and most reliable method of logP determination is the shake-flask method, which consists of dissolving some of the active element in question in a volume of n-octanol and water, then measuring the concentration of the solute in each solvent (Organization for Economic Cooperation and Development, Guidelines for The Testing of Chemicals, OECD 107, Partition Coefficient (n-octanol/water)-Shake Flask Method, Adopted 27 Jul. 1995-, OECD, Paris, France).
Table 1 lists active elements used in the study, providing chemical name (first column), the Chemical Abstract Service number (CAS#, second column), supplier and supplier product code (third and fourth column), the logarithm of the octanol/water partition coefficient (logP) and the concentration used in final formulations in parts per million of volume (ppmV). These nine active elements are volatile aroma compounds.

[3] = n-octanol/water, logarithm of the octanol/water partition coefficient, read-out: logP

Compound | Cmax released in headspace, comparison ([1]; emulsion of the present invention 5 wt % (MG:MCT 1:20) vs simple emulsion 10 wt % MCT) | significance of Tmax difference [1] | logP [2, 3] | logP [2] | logP ([2]; logarithm of the octanol/water partition coefficient)
O=Cc1ccccc1 [Benzaldehyde] |  | significant increase |  |  | 
CCC/C=C/C=O [Example 2E-hexenal, 2E-hexenal] |  |  |  |  | 1.576
CC=O [Acetaldehyde] |  | non-significant difference | -0.156 |  | 
COc1nccnc1CC(C)C [3-methoxy-2-isobutylpyrazine] |  | significant increase | 2.62 |  | 
CC(=O)C(C)=O [Diacetyl] |  | non-significant difference |  | −1.332 | 
CCOC(=O)CC(C)C [Ethyl isovalerate] |  | significant increase | 2.12 |  | 

Further lines, with some results ahead:

Cmax released in headspace, comparison ([1]; emulsion of the present invention 5 wt % (MG:MCT 1:20) vs simple emulsion 10 wt % MCT) | significance of Tmax difference [1] | logP [2, 3] | logP [2] | Compound | logP ([2]; logarithm of the octanol/water partition coefficient)
significantly higher | significant increase | 3.28 |  | C=CC(C)(O)CCC=C(C)C (centres unmarked) [Linalool] | 
 | significant increase | […] |  | CC/C=C\CCO [cis-3-Hexen-1-ol] | 
 | significant increase | 3.03 |  | CCCCCCCC=O [Octanal] | 
